From PubChem BioAssay (NCI)
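Following 48 hours of exposure in 96-well plates, responses at five concentrations were used to interpolate endpoints linearly. Definition used: TGI = concentration required for complete inhibition of growth.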

Tests used:
Experiment in all cases: DTP human tumour cell line panel, 48 h
U251 CNS = tested on: U251 CNS
TK-10 renal = tested on: TK-10 renal
HCC-2998 colon = tested on: HCC-2998 colon
LOX IMVI melanoma = tested on: LOX IMVI melanoma
SK-MEL-2 melanoma = tested on: SK-MEL-2 melanoma
ACHN renal = tested on: ACHN renal
HCT-116 colon = tested on: HCT-116 colon
BT-549 breast = tested on: BT-549 breast
SNB-75 CNS = tested on: SNB-75 CNS
SK-MEL-28 melanoma = tested on: SK-MEL-28 melanoma
SN12C renal = tested on: SN12C renal
SK-OV-3 ovarian = tested on: SK-OV-3 ovarian
DU-145 prostate = tested on: DU-145 prostate
EKVX NSCLC = tested on: EKVX NSCLC
SK-MEL-5 melanoma = tested on: SK-MEL-5 melanoma
RPMI-8226 leukemia = tested on: RPMI-8226 leukemia
UACC-257 melanoma = tested on: UACC-257 melanoma
K-562 leukemia = tested on: K-562 leukemia
MDA-MB-231 breast = tested on: MDA-MB-231 breast
CCRF-CEM leukemia = tested on: CCRF-CEM leukemia
A498 renal = tested on: A498 renal
SW-620 colon = tested on: SW-620 colon
UACC-62 melanoma = tested on: UACC-62 melanoma
HS 578T breast = tested on: HS 578T breast
786-0 renal = tested on: 786-0 renal
NCI-H23 lung = tested on: NCI-H23 lung
NCI-H460 lung = tested on: NCI-H460 lung
UO-31 renal = tested on: UO-31 renal
HCT-15 colon = tested on: HCT-15 colon
IGROV1 ovarian = tested on: IGROV1 ovarian
RXF 393 renal = tested on: RXF 393 renal
SR leukemia = tested on: SR leukemia
HT29 colon = tested on: HT29 colon
MDA-N = tested on: MDA-N
OVCAR-8 ovarian = tested on: OVCAR-8 ovarian
SF-268 CNS = tested on: SF-268 CNS
SF-295 CNS = tested on: SF-295 CNS
NCI-H226 lung = tested on: NCI-H226 lung
MDA-MB-435 = tested on: MDA-MB-435
MOLT-4 leukemia = tested on: MOLT-4 leukemia
SF-539 CNS = tested on: SF-539 CNS
MCF7 breast = tested on: MCF7 breast
M14 melanoma = tested on: M14 melanoma
COLO 205 colon = tested on: COLO 205 colon
OVCAR-3 ovarian = tested on: OVCAR-3 ovarian
NCI/ADR-RES ovarian = tested on: NCI/ADR-RES ovarian
HOP-62 NSCLC = tested on: HOP-62 NSCLC
KM12 colon = tested on: KM12 colon
PC-3 prostate = tested on: PC-3 prostate
SNB-19 CNS = tested on: SNB-19 CNS
NCI-H522 lung = tested on: NCI-H522 lung
MALME-3M melanoma = tested on: MALME-3M melanoma
A549 NSCLC = tested on: A549 NSCLC
CAKI-1 renal = tested on: CAKI-1 renal

Measured: TGI

CCOC(=O)CC1c2ccc(O)cc2OC(=O)C1c1ccc(N)cc1 (centres undefined)
> 100 µM: U251 CNS | TK-10 renal | HCC-2998 colon | LOX IMVI melanoma | SK-MEL-2 melanoma | ACHN renal | HCT-116 colon | BT-549 breast | SNB-75 CNS | SK-MEL-28 melanoma | SN12C renal | SK-OV-3 ovarian | DU-145 prostate | EKVX NSCLC | SK-MEL-5 melanoma | RPMI-8226 leukemia | UACC-257 melanoma | K-562 leukemia | MDA-MB-231 breast | CCRF-CEM leukemia | A498 renal | SW-620 colon | UACC-62 melanoma | HS 578T breast | 786-0 renal | NCI-H23 lung | NCI-H460 lung | UO-31 renal | HCT-15 colon | IGROV1 ovarian | RXF 393 renal | SR leukemia | HT29 colon | MDA-N | OVCAR-8 ovarian | SF-268 CNS | SF-295 CNS | NCI-H226 lung | MDA-MB-435 | MOLT-4 leukemia | SF-539 CNS | MCF7 breast | M14 melanoma | COLO 205 colon | OVCAR-3 ovarian | NCI/ADR-RES ovarian | HOP-62 NSCLC | KM12 colon | PC-3 prostate | SNB-19 CNS | NCI-H522 lung | MALME-3M melanoma | A549 NSCLC | CAKI-1 renal
